Source: patent publication US11957684B2, “Treatment of heavy menstrual bleeding associated with uterine fibroids” (Sumitomo Pharma Switzerland GmbH, priority 2016, dated 2024)
Values joined by “and” are separate entries in the source; they are usually repeats but may differ in a detail not shown here. Equal values may be shown once. Read-outs that look alike come from different tables or passages of the source.

Test system: endometriosis-associated pain
Type: in vivo, human
Protocol: Subjects assessed and recorded their own quality of life (QOL) using the EHP-30 once a month during the study visit. As used in the examples, the VAS score was evaluated using a 100 mm scale. For pain intensity, the scale was anchored by “no pain” (score of 0) and “pain as bad as you can imagine” (score of 100). […] The above items were evaluated using a patient diary that was distributed by the sponsor. Subjects filled out the patient diary every day during the treatment period or until early termination. If taking prohibited analgesics, subjects recorded this fact in the patient diary along with the accompanying pain symptoms before use of analgesics. As used in the examples, pain during menstruation and pelvic pain unrelated to menstruation were evaluated using scores on the M-B&B and B&B. The M-B&B scores were recorded by subjects on the patient diary supplied by the sponsor. Subjects filled out the patient diary every day during the treatment period or until early termination. If taking prohibited analgesics, subjects recorded this fact in the patient diary along with the accompanying pain symptoms before use of analgesics. The investigator or subinvestigator assessed each patient's pain through interviews and filled out a B&B once a month. The items that were assessed are shown below. The M-B&B score included: dysmenorrhea (severe, moderate, mild, no pain, or no menstruation); pelvic pain (severe, moderate, mild, or no pain); deep dyspareunia (severe, moderate, mild, no pain, or no intercourse). The B&B score included: dysmenorrhea (severe, moderate, mild, none, or not applicable); dyspareunia (severe, moderate, mild, none, or not applicable); pelvic pain (severe, moderate, mild, or none); pelvic tenderness (severe, moderate, mild, or none); and induration (severe, moderate, mild, or none). As used in the examples, the EHP-30 score was obtained by subjects assessing and recording their own QOL using the EHP-30 questionnaire.

[1] = 40 mg, end of 84 consecutive days

CONC(=O)Nc1ccc(-c2sc3c(c2CN(C)C)c(=O)n(-c2ccc(OC)nn2)c(=O)n3Cc2c(F)cccc2F)cc1 [Compound 1, N-(4-(1-(2,6-difluorobenzyl)-5-((dimethylamino)methyl)-3-(6-methoxy-3-pyridazinyl)-2,4-dioxo-1,2,3,4-tetrahydrothieno[2,3-d]pyrimidin-6-yl)phenyl)-N′-methoxyurea]
change from baseline in maximum M-B&B score, pelvic pain (20 mg, end of treatment): −0.7±0.79 | change from baseline in maximum VAS, dyspareunia (20 mg, end of treatment): −7.0±15.29 mm | change from baseline in maximum VAS, pelvic pain (20 mg, end of treatment): −33.3±30.14 mm | change from baseline in mean M-B&B score, deep dyspareunia (20 mg, end of treatment): −0.210±0.4936 | change from baseline in mean M-B&B score, dysmenorrhea (20 mg, end of treatment): −0.795±0.6490 | change from baseline in mean VAS, dysmenorrhea (20 mg, end of treatment): −19.825±20.4332 mm | change from baseline in mean VAS, dyspareunia (20 mg, end of treatment): −3.553±11.5544 mm | change from baseline in mean VAS, pelvic pain (20 mg, end of treatment): −9.032 mm and −9.032±11.8432 mm | change from baseline in proportion of days with usage of pain killer (20 mg, end of treatment): −7.36±14.585% | change in proportion of days without pain (M-B&B), deep dyspareunia (20 mg, end of treatment): 18.04±47.892% | change in proportion of days without pain (M-B&B), dysmenorrhea (20 mg, end of treatment): 50.92±41.641% | change in proportion of days without pain (M-B&B), pelvic pain (20 mg, end of treatment): 17.75±30.339% | change in proportion of days without pain (VAS), dysmenorrhea (20 mg, end of treatment): 50.91±42.602% | change in proportion of days without pain (VAS), dyspareunia (20 mg, end of treatment): 15.14±47.793% | change in proportion of days without pain (VAS), pelvic pain (20 mg, end of treatment): 21.50±28.859% | mean VAS score, dysmenorrhea (20 mg, end of treatment): 7.878±14.2406 mm | mean VAS score, dyspareunia (20 mg, end of treatment): 6.363±13.1847 mm | mean VAS score, pelvic pain (20 mg, end of treatment): 6.557±11.2902 mm | subjects who achieved amenorrhea (20 mg, end of treatment): 54.0% | subjects without pain in M-B&B score, dysmenorrhea (20 mg, end of treatment): 61.0% | subjects without pain in M-B&B score, dyspareunia (20 mg, end of treatment): 52.5% | subjects without pain in M-B&B score, pelvic pain (20 mg, end of treatment): 34.0% | subjects without pain in VAS score, dysmenorrhea (20 mg, end of treatment): 59.0% | subjects without pain in VAS score, dyspareunia (20 mg, end of treatment): 47.5% | subjects without pain in VAS score, pelvic pain (20 mg, end of treatment): 20% | change from baseline in pelvic pain, dysmenorrhea, and dyspareunia in mean VAS (40 mg, 84 consecutive days): −10.418±11.0171 mm | change from baseline in mean VAS, dysmenorrhea (40 mg, Day 1-28): −10.979±14.8545 mm | change from baseline in mean VAS, dyspareunia (40 mg, Day 1-28): 2.995±9.7916 mm | change from baseline in mean VAS, pelvic pain (40 mg, Day 1-28): −3.761±7.8831 mm | mean VAS score, dysmenorrhea (40 mg, Day 1-28): 19.452±19.1065 mm | mean VAS score, dyspareunia (40 mg, Day 1-28): 9.522±13.6408 mm | mean VAS score, pelvic pain (40 mg, Day 1-28): 11.498±13.2341 mm | change from baseline in mean VAS, dysmenorrhea (40 mg, Day 57-84): −30.094±17.2623 mm | change from baseline in mean VAS, dyspareunia (40 mg, Day 57-84): −1.860±10.3161 mm | change from baseline in mean VAS, pelvic pain (40 mg, Day 57-84): −10.537±11.0516 mm | mean VAS score, dysmenorrhea (40 mg, Day 57-84): 0.569±2.5367 mm | mean VAS score, dyspareunia (40 mg, Day 57-84): 4.126±7.9652 mm | mean VAS score, pelvic pain (40 mg, Day 57-84): 4.785±8.9162 mm | change from baseline in mean VAS, dysmenorrhea (40 mg, Day 141-168): −31.210±17.7668 mm | change from baseline in mean VAS, dyspareunia (40 mg, Day 141-168): −0.830±13.6774 mm | mean VAS score, dysmenorrhea (40 mg, Day 141-168): 0.430±2.3141 mm | mean VAS score, dyspareunia (40 mg, Day 141-168): 3.531±9.6053 mm | mean VAS score, pelvic pain (40 mg, Day 141-168): 2.979±6.1704 mm | change from baseline in EHP-30, Self-image (40 mg, Week 24): −9.68±17.744 | change from baseline in EHP-30, control & powerlessness (40 mg, Week 24): −20.88±21.676 | change from baseline in EHP-30, emotional well-being (40 mg, Week 24): −13.26±16.316 | change from baseline in EHP-30, pain (40 mg, Week 24): −25.94±19.902 | change from baseline in EHP-30, social support (40 mg, Week 24): −10.28±17.109 | change from baseline in mean B&B score, dysmenorrhea (40 mg, Week 24): −2.0±0.61 | change from baseline in mean B&B score, dyspareunia (40 mg, Week 24): −0.1±0.43 | change from baseline in mean B&B score, pelvic pain (40 mg, Week 24): −1.0±0.86 | change from baseline in mean B&B score, pelvic tenderness (40 mg, Week 24): −1.0±0.92 | subjects without pain in B&B score, dysmenorrhea (40 mg, Week 24): 94.3% | subjects without pain in B&B score, pelvic pain (40 mg, Week 24): 58.6% | change from baseline in proportion of days without dysmenorrhea (M-B&B) (40 mg, end of 28 consecutive days): 73.98±29.567% | change from baseline in mean EHP-30 score [1]: −25.94±19.902 | change from baseline in mean M-B&B score, deep dyspareunia [1]: −0.097±0.4325 | change from baseline in mean M-B&B score, dysmenorrhea [1]: −1.144±0.5014 | change from baseline in mean M-B&B score, pelvic pain [1]: −0.400±0.4491 | change from baseline in proportion of days without deep dyspareunia (M-B&B) [1]: 8.15±43.20% | change from baseline in proportion of days without dysmenorrhea (VAS) [1]: 78.45±29.838% | change from baseline in proportion of days without pelvic pain (M-B&B) [1]: 31.00±36.746% | change from baseline in proportion of days without pelvic pain (VAS) [1]: 36.59±34.849% | subjects without dysmenorrhea (B&B) [1]: 94.3% | subjects without dyspareunia (M-B&B) [1]: 51.3% | change from baseline in maximum M-B&B score, dysmenorrhea (40 mg, end of treatment): −2.0±0.76 | change from baseline in maximum M-B&B score, dyspareunia (40 mg, end of treatment): −0.1±0.54 | change from baseline in maximum M-B&B score, pelvic pain (40 mg, end of treatment): −1.0±0.89 | change from baseline in maximum VAS, dysmenorrhea (40 mg, end of treatment): −57.1±25.00 mm | change from baseline in maximum VAS, dyspareunia (40 mg, end of treatment): −2.5±17.17 mm | change from baseline in maximum VAS, pelvic pain (40 mg, end of treatment): −49.7±26.47 mm | change from baseline in mean M-B&B score, deep dyspareunia (40 mg, end of treatment): −0.097±0.4325 | change from baseline in mean M-B&B score, dysmenorrhea (40 mg, end of treatment): −1.144±0.5014 | change from baseline in mean M-B&B score, pelvic pain (40 mg, end of treatment): −0.400±0.4491 | change from baseline in mean VAS, dysmenorrhea (40 mg, end of treatment): −29.513±17.5379 mm | change from baseline in mean VAS, dyspareunia (40 mg, end of treatment): −0.925±12.0373 mm | change from baseline in mean VAS, pelvic pain (40 mg, end of treatment): −11.924 mm and −11.924±11.2609 mm | change from baseline in mean score of amount of bleeding (0 to 5) (40 mg, end of treatment): −2.207±0.8149 | change from baseline in proportion of days with usage of pain killer (40 mg, end of treatment): −9.95±14.214% | change in proportion of days without pain (M-B&B), deep dyspareunia (40 mg, end of treatment): 8.15±43.207% | change in proportion of days without pain (M-B&B), dysmenorrhea (40 mg, end of treatment): 73.98±29.567% | change in proportion of days without pain (M-B&B), pelvic pain (40 mg, end of treatment): 31.00±36.746% | change in proportion of days without pain (VAS), dysmenorrhea (40 mg, end of treatment): 78.45±29.838% | change in proportion of days without pain (VAS), dyspareunia (40 mg, end of treatment): 4.50±40.796% | change in proportion of days without pain (VAS), pelvic pain (40 mg, end of treatment): 36.59±34.849% | mean VAS score, dysmenorrhea (40 mg, end of treatment): 0.918±4.3438 mm | mean VAS score, dyspareunia (40 mg, end of treatment): 4.842±9.1145 mm | mean VAS score, pelvic pain (40 mg, end of treatment): 3.335±6.4059 mm | subjects who achieved amenorrhea (40 mg, end of treatment): 91.3% | subjects without pain in M-B&B score, dysmenorrhea (40 mg, end of treatment): 93.2% | subjects without pain in M-B&B score, dyspareunia (40 mg, end of treatment): 51.3% | subjects without pain in M-B&B score, pelvic pain (40 mg, end of treatment): 52.4% | subjects without pain in VAS score, dysmenorrhea (40 mg, end of treatment): 93.2% | subjects without pain in VAS score, dyspareunia (40 mg, end of treatment): 48.7% | subjects without pain in VAS score, pelvic pain (40 mg, end of treatment): 49.5% and 50%
